The term IC50 denotes the concentration that inhibits the measured activity by half.

Experimental findings from US5814627A, “3, 5-disubstituted and 3, 4, 5-trisubstituted 2-isoxazolines and isoxazoles, process for their preparation and their use as pharmaceuticals” (Hoechst Aktienegesellschaft, priority 1994, dated 1998) are described below.

In experiment [1] the test system is tumor cell line 20-10-5S (hybridoma cell line). As to the kind of experiment: Test 8: Inhibition of tumor cell proliferation. Particulars: 48 h + 16 h tritiated thymidine incorporation; 20-10-5S cells. Format: cell-based. For orientation: Dividing cells build labelled thymidine or BrdU into new DNA.
Experiment [2] concerns cyclooxygenase-dependent thrombocyte aggregation. As to the kind of experiment: Test 5: Cyclooxygenase-dependent thrombocyte aggregation. The format is cell-based, human. Particulars: Homo sapiens, arachidonic acid as inducer, read-out: Test 5 residual activity (cyclooxygenase-dependent thrombocyte aggregation), percent of control. Here is the method:
TEST 5. Cyclooxygenase-dependent thrombocyte aggregation
Platelet-rich plasma (PRP): to inhibit coagulation, human blood was treated with 1/10 of its volume of 3.8% sodium citrate solution. Centrifugation then takes place at 105×g for 20 minutes and the supernatant (PRP) is removed. 200 μl of PRP were preincubated, at 37° C. for 10 minutes, together with 30 μl of test substance in a PAP4 aggregometer (BioData). The test substance was dissolved in organic solvent and diluted 1:30 with buffer (50 mM TisHCl, pH 8.0; 90 mM NaCl). Aggregation is triggered with 20 μl of inducer. During the aggregation, stirring takes place at 800 rpm. Arachidonic acid, 5 mg/ml, was used as the inducer.
The values in the table show the concentration of the test substance which was employed in μM and, besides this, the residual activity measured in percent based on the control, which was set to be 100%. The interleukin is additionally indicated in test 4.

On to `CC(C)(C)c1cc(C2=NO[C@H]([C@@H]3CO3)C2)cc(C(C)(C)C)c1O` (relative stereo) [Example 17], for which the IC50 in experiment [1] lay in the range of 8 to 15 µM.
Take `COC(=O)CCc1cc(-c2cc(C(C)(C)C)c(O)c(C(C)(C)C)c2)no1` [Example 44]: the IC50 in experiment [1] was 5 to 10 µM. The activity at 10 µM in experiment [2] (10 μM) was determined as 99%.
On to `CC(=O)O[C@@H](C(=O)O)[C@@H](OC(C)=O)C(=O)NCc1cc(-c2cc(C(C)(C)C)c(O)c(C(C)(C)C)c2)no1` [Example 82, Di-O-acetyl-L-tartaric acid-N-(3-(4-hydroxy-3,5-di-tert-butylphenyl)isoxazol-5-yl)methylamide], for which, in experiment [2], the activity at 100 µM came out at 93%.
For `CC(C)(C)c1cc(-c2cc(C(C)(C)O)on2)cc(C(C)(C)C)c1O` [Example 29], the IC50 in experiment [1] is less than 5 µM.
For the compound `CC(C)(C)c1cc(C2=NOC(C(N)=O)C2)cc(C(C)(C)C)c1O` (stereo not drawn) [Example 11], the IC50 in experiment [1] is less than 5 µM.
With `CN(O)C(=O)C(C)(C)OCc1cc(-c2cc(C(C)(C)C)c(O)c(C(C)(C)C)c2)no1` [Example 37, N-Methylhydroxamoyl-2-((3-(4-hydroxy-3,5-di-tert-butylphenyl)isoxazol-5-ylmethoxy)-2-methyl propionate], the IC50 in experiment [1] is less than 5 µM.
As to `C=CCC(O)CC1CC(c2cc(C(C)(C)C)c(O)c(C(C)(C)C)c2)=NO1` (stereo not drawn) [Example 80], in experiment [1], the IC50 lay within 5 to 10 µM. The activity at 50 µM in experiment [2] (50 μM) was determined as 97%.
On to `CC(C)(OCC1CC(c2cc(C(C)(C)C)c(O)c(C(C)(C)C)c2)=NO1)C(=O)O` (stereo not drawn) [Example 3, 2-(3-(4-Hydroxy-3,5-di-tert-butylphenyl)-2-isoxazolin-5-ylmethoxy)methylpropionic acid], for which the IC50 in experiment [1] came out at 10 µM. In experiment [2], the activity at 100 µM worked out at 98%.
Consider `CC(C)(C)c1cc(C2=NO[C@H]([C@H]3CO3)C2)cc(C(C)(C)C)c1O` (relative stereo) [Example 16], for which, in experiment [1], the IC50 stood at 30 µM.
For the compound `CCOC(=O)CNC(=O)OCc1cc(-c2cc(C(C)(C)C)c(O)c(C(C)(C)C)c2)no1` [Example 39, N-(3-(4-Hydroxy-3,5-di-tert-butylphenyl)isoxazol-5-ylmethoxycarbonyl)glycine ethyl ester], the IC50 in experiment [1] came to 30 µM. Also, the activity at 100 µM in experiment [2] was determined as 98%.
Regarding `CC(OC(=O)[C@@H](N)Cc1ccc(O)cc1)C1CC(c2cc(C(C)(C)C)c(O)c(C(C)(C)C)c2)=NO1` (mixture of isomers) [Example 88, L-Tyrosyl 1-(3-(3,5-di-tert-butyl-4-hydroxyphenyl)-2-isoxazolin-5-yl)ethyl ester, rac. 5,5'-erythro isomer mixture], the IC50 in experiment [1] was 10 µM.
Consider `CC(C)(C)c1cc(C2=NOC(COC(=O)NCC(=O)O)C2)cc(C(C)(C)C)c1O` (stereo not drawn) [Example 4, N-(3-(4-Hydroxy-3,5-di-tert-butylphenyl)-2-isoxazolin-5-ylmethoxycarbonyl)glycine], for which the IC50 in experiment [1] is 30 µM.
With `CCOC(=O)COC(C)(C)c1cc(-c2cc(C(C)(C)C)c(O)c(C(C)(C)C)c2)no1` [Example 33, Ethyl (1-(3-(4-hydroxy-3,5-di-tert-butylphenyl)isoxazol-5-yl)-1-methylethoxy)acetate], the IC50 in experiment [1] is less than 5 µM.
As to `CC(C)(C)c1cc(-c2cc(C(C)(C)OCC(=O)O)on2)cc(C(C)(C)C)c1O` [Example 34, (1-(3-(4-Hydroxy-3,5-di-tert-butylphenyl)isoxazol-5-yl)-1-methylethoxy)acetic acid], the activity at 100 µM in experiment [2] was found to be 98%.
In the case of `CCC(C)(O)c1cc(-c2cc(C(C)(C)C)c(O)c(C(C)(C)C)c2)no1` (stereo not drawn) [Example 31], the activity at 100 µM in experiment [2] is 100%.
With `CC(C)(C)c1cc(-c2cc(CCCOC(=O)NCC(=O)O)on2)cc(C(C)(C)C)c1O` [Example 42, N-(3-(4-Hydroxy-3,5-di-tert-butylphenyl)isoxazol-5-ylpropoxycarbonyl)glycine], the IC50 in experiment [1] was 5 to 10 µM.
`CC(C)(C)c1cc(-c2cc(/C=C/P(=O)(O)O)on2)cc(C(C)(C)C)c1O` [Example 58, 2-(3-(4-Hydroxy-3,5-di-tert-butylphenyl)isoxazol-5-yl)vinylphosphonic acid]: the activity at 100 µM in experiment [2] came out at 99%.
